In patent US20240156800A1, “EP300 DEGRADER AND USES THEREOF IN NEUROBLASTOMA” (DANA-FARBER CANCER INSTITUTE, INC., priority 2021, published 2024):

Tests used:
H3K27ac = H3K27ac ChIP-seq with Drosophila spike-in (ChIP-RX) in Kelly cells; type: cell-based, human; settings: 500 nM
Experimental: ChIP-seq was performed as previously described for cell lines (Durbin et al. Nat. Genet. 50:1240-6 (2018)). The following antibodies were used for ChIP: EP300 (Abcam, ab10485), CBP (#7389, Cell Signaling Technology®), TFAP2β (#2509, Cell Signaling Technology®), ASCL1 (sc-374104, Santa Cruz Biotechnology) and H3K27ac (Abcam ab4729). For each ChIP, 10 μg of antibody was added to 3 ml of sonicated nuclear extract. Illumina® sequencing, library construction, and ChIP-seq analysis methods were performed as described in Mansour et al. Science 346, 1373-7 (2014) and Sanda et al. Cancer Cell 22:209-21 (2012). Remaining ChIP-seq and assay for transposase-accessible chromatin (ATAC)-sequencing data were extracted from previously published datasets (GSE120074, GSE94822, GSE65664) available through the GEO portal. For experiments involving analysis of quantitative changes in H3K27ac, pellets of neuroblastoma cells were externally spiked in with similarly fixed and processed S2 cells at 1:10 ratio, prior to sonication.
ChIP-RX reads from Kelly cells treated with 500 nM JQAD1 were aligned in multiple steps. Reads were aligned to the dm6 revision of the D. melanogaster reference genome with -k 1 —chunkmbs 256—best to identify spiked-in DNA. Counts of fly reads were determined by counting unique read names in the aligned read file. Remaining non-fly reads were aligned to the hg19 revision of the human reference genome with parameters -k 2 -m 2 -chunkmbs 256 -best -175. Visualization files were constructed using macs 1.4 with parameters -w -S -space=50 -nomodel -shiftsize=200 to generate wiggle files, which were subsequently normalized by the millions of fly-mapped reads in the corresponding sample.
H3K27ac ChIP-RX read coverage of stitched enhancers was quantified using bamToGFF with parameter -t TRUE and divided by the millions of mapped reads, from which read-per-million values from the corresponding input experiment was subtracted. These values were used to create fold-changes during the treatment time-course.

His-tagged CRBN = His-tagged CRBN (Homo sapiens, UniProt Q96SW2); assay: AlphaLISA assay with biotinylated pomalidomide and His-tagged CRBN; type: binding; settings: competition with biotinylated pomalidomide
Chain of His-tagged CRBN (Q96SW2 whole entry): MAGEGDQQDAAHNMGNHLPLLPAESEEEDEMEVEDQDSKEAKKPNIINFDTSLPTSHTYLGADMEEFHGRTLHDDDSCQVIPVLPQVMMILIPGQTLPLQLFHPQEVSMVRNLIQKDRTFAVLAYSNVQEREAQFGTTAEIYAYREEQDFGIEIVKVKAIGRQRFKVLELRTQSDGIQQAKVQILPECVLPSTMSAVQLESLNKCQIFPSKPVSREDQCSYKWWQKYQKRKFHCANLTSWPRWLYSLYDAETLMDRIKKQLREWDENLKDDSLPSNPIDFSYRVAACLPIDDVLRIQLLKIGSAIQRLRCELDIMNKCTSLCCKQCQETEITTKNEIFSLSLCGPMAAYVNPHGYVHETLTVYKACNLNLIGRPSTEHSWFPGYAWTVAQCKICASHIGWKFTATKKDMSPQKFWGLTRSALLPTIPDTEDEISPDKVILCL
Chain of His-tagged CRBN (Q16531 whole entry partner): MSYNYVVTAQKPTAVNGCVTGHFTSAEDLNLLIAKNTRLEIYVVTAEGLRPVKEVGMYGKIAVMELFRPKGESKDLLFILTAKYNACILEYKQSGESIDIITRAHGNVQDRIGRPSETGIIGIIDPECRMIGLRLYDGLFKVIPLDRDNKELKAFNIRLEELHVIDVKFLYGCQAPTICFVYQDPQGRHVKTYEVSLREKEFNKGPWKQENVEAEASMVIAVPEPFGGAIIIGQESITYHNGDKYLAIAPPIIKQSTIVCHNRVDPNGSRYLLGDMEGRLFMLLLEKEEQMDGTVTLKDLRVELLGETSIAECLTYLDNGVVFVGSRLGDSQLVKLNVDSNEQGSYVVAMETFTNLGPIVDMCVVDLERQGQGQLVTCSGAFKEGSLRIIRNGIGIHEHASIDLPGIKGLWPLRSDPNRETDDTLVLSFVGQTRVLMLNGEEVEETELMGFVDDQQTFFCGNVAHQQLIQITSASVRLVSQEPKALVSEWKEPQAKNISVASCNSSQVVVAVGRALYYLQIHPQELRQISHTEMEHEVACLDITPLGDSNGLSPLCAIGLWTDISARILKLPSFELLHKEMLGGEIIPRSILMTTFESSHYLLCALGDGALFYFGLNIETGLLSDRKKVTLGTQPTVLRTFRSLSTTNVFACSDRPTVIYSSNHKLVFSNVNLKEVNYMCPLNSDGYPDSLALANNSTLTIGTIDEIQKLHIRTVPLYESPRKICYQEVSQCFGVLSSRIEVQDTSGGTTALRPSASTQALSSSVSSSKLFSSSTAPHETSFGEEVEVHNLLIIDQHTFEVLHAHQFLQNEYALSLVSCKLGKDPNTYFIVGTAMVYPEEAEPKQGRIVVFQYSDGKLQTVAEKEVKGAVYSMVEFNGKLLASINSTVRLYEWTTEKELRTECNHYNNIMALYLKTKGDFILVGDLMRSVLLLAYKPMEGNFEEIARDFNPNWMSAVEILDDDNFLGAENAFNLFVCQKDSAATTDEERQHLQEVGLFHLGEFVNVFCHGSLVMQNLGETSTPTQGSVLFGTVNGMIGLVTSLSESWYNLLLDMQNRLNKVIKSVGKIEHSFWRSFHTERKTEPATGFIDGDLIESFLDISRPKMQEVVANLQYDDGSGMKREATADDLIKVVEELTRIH
Experimental: To determine whether JQAD1 interacts with the E3 ligase receptor CRBN, the AlphaLISA® platform was used to perform AlphaLISA® fluorescent assays using biotinylated pomalidomide bound to beads and His-tagged CRBN (Yasgar et al. Methods Mol. Biol. 1439:77-98 (2016)). […] Next, biotinylated JQAD1 (Biotin-JQAD1, Scheme 2) was synthesized and incubated with Kelly cell lysates, followed by streptavidin-based purification. […] PROTAC®s may acquire preferential specificity for one of two possible target enzymes due to restricted three-dimensional interactions, as noted in Burslem and Crews, Cell 181:102-14 (2020).
Assays were performed with minimal modifications from the manufacturer's protocol (PerkinElmer®, USA). Briefly, a 2× solution of components with final concentrations of CRBN-DDB1 at 50 nM, Ni-coated Acceptor Beads at 20 μg/ml, and 15 nM biotinylated-pomalidomide were added in […] to 384-well plates (AlphaPlate-384, PerkinElmer®, USA). 100 nL of compound in DMSO from stock plates were added by pin transfer using a Janus Workstation (PerkinElmer®, USA). Streptavidin-coated donor beads (20 μg/ml final) were added to the solution, followed by incubation at room temperature for 1 hour, and reading on an Envision 2104 (PerkinElmer®, USA), by the manufacturer's protocol.

[1] = test system: Kelly, NGP and SIMA NB cells; assay: Cell Titer-Glo cell viability / growth assay; type: cell-based, human; settings: 6 days, compared with (S,S) stereoisomer and A485
Experimental: Cells were infected with lentiviruses encoding sgRNAs or treated with compounds as described. Colony assays were performed by replating cells at 500 cells per well in 6-well dishes and grown in regular growth media for 10 d before 100% methanol fixation, 0.05% crystal violet staining, and quantitation. Experiments were completed in triplicate; data shown are the average of three independent experiments. Cell Titer-Glo® assay was performed as per the manufacturer's instructions (Promega®). Briefly, 1000 cells/well were plated into 96-well plates and treated with a range of compound dosing. Cell viability was measured at the noted time points based on luminescence by the Cell Titer-Glo® assay (Promega®) and read on an Envision 2104 (PerkinElmer®, USA) according to the manufacturer's protocol.

CBP = target: T1, CBP (Homo sapiens, UniProt Q92793); assay: Immunohistochemistry of CBP in Kelly cell xenografts; type: in vivo; settings: 40 mg/Kg once daily
T1 construct: Cells growing in culture were lysed for whole cell lysates; endogenous in cells; host or cells: Kelly, NGP, SIMA, BE2C neuroblastoma cells; Kelly xenografts in NSG mice
T1 sequence (Q92793 whole entry): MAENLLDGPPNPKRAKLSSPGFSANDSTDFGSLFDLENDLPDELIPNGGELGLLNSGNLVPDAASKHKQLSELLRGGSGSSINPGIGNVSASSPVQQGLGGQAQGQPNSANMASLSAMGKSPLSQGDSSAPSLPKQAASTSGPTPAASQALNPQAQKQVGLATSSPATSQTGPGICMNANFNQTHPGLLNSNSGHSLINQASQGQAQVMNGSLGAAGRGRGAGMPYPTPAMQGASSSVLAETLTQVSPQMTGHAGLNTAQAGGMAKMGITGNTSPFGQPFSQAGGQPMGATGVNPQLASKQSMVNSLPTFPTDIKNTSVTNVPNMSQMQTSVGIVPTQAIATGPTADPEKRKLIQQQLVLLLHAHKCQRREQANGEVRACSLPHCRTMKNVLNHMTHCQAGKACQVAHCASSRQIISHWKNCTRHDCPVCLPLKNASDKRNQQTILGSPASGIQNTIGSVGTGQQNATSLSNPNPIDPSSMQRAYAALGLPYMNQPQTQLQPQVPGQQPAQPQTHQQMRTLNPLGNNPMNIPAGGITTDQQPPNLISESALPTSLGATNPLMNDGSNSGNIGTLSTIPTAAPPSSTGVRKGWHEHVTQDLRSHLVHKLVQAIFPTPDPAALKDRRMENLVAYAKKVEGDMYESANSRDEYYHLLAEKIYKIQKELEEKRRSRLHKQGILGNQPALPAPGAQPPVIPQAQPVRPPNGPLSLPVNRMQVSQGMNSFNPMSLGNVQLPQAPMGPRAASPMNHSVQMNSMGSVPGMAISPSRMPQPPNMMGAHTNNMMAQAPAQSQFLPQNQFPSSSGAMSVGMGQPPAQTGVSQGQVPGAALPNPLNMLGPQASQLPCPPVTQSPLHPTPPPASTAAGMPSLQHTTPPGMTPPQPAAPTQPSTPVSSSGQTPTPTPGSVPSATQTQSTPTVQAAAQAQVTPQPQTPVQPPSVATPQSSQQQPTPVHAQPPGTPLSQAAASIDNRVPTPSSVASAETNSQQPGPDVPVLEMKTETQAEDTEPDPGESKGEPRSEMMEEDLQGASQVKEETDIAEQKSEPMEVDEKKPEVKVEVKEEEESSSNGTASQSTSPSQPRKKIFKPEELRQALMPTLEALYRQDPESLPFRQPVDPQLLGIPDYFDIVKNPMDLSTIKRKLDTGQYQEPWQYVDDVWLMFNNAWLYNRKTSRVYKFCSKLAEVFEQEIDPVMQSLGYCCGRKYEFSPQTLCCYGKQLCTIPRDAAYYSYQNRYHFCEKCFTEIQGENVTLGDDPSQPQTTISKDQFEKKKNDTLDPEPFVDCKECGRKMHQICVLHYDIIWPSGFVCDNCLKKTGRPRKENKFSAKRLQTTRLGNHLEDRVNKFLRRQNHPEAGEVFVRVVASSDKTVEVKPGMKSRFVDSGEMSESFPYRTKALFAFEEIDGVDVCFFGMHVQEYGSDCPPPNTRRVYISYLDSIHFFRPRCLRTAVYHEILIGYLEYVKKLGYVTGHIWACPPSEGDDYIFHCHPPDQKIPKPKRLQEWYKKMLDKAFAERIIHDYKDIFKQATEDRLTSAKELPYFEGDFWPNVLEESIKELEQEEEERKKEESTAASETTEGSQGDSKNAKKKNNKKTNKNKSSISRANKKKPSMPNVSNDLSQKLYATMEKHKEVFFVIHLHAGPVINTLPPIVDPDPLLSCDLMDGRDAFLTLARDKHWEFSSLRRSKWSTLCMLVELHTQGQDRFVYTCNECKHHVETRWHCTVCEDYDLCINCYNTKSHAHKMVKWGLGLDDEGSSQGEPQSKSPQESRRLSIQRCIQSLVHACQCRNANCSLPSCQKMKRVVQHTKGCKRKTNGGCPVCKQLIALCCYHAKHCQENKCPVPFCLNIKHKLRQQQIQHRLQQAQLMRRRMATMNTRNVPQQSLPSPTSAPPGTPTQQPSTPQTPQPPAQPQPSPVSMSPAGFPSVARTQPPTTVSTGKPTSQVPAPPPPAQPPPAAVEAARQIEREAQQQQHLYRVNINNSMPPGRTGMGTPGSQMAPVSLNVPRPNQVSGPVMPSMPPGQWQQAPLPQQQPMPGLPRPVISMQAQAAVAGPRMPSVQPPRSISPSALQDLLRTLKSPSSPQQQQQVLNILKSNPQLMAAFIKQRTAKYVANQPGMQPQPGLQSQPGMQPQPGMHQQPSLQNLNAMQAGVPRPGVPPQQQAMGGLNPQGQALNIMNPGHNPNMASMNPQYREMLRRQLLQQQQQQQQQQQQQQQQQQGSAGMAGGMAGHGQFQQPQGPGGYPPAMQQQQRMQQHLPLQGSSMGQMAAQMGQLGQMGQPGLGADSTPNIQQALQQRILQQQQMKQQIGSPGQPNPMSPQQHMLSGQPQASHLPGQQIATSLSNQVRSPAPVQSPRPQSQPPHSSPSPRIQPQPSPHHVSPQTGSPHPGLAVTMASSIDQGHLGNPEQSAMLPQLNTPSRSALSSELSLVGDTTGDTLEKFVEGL
Experimental: Separately, eight animals were xenografted as described above, and treated with vehicle (n=4) or JQAD1 (n=4) at 40 mg/kg IP daily for 14 days. These animals were sacrificed at day 14, following which tumor was extracted, and divided for immunohistochemical analysis or analysis of RNA expression by RNA sequencing (RNA-seq). Immunohistochemistry was performed on the Leica® Bond™ III automated staining platform. Antibody EP300 from Cell Signaling Technology®, catalog number 86377, clone D8Z4E, was run at 1:50 dilution using the Leica® Biosystems Refine Detection Kit with citrate antigen retrieval. Antibody KAT3A/CBP (catalog number ab2832, polyclonal, Abcam) was run at 1:200 using the Leica® Biosystems Refine Detection Kit with ethylenediaminetetraacetic acid (EDTA) antigen retrieval.

For `C[C@H](N(Cc1ccc(F)cc1)C(=O)CN1C(=O)O[C@@]2(CCc3cc(NC(=O)CCCCCCCCCCCNc4ccc5c(c4)C(=O)N(C4CCC(=O)NC4=O)C5=O)ccc32)C1=O)C(F)(F)F` (stereo partly drawn) [JQAD1, 12-((2-(2,6-dioxopiperidin-3-yl)-1,3-dioxoisoindolin-5-yl)amino)-N-((R)-3′-(2-((4-fluorobenzyl)((S)-1,1,1-trifluoropropan-2-yl)amino)-2-oxoethyl)-2′,4′-dioxo-2,3-dihydrospiro[indene-1,5′-oxazolidin]-5-yl)dodecanamide], the “H3K27ac signal at 6 h versus 0 h” value (H3K27ac; 6 h) was “no consistent change in acetylation”, the “H3K27ac signal genome-wide at 24 h” value (H3K27ac; 24 h) was “general loss of H3K27ac signal genome-wide, which was most pronounced at densely acetylated super-enhancers” and the “global suppression of all enhancers (H3K27ac marked sites)” value (H3K27ac; 24 h versus untreated) was “approximately 2 fold”. For the same molecule, the “interaction with CRBN” value (His-tagged CRBN) was “efficiently interacted with CRBN”, the “IC50 in intact NB cells (comparison)” value [1] was “lowest IC50 concentration” and the “CBP immunostaining of tumors” value (CBP) was “CBP immunostaining was retained”.
